Where a chain is given by its changes, count along the chain named. Where “and” joins values, the source holds several entries; their conditions need not be identical. Equal entries are not always repeated. Where two headings read alike, the source gives them in different places. Where a SMILES comes first, the peptide text is derived from it. Where no end group is shown, it is not given here. The star is where a group is joined. For = O=C*
Assays:
[1] = target: T1, FPR1 R205A (Homo sapiens, UniProt P21462, R205A); test: cAMP inhibition assay, FPR1 R205A; assay type: cell-based; design: key to cAMP response, source data of Fig. 5c: % of maximal cAMP level for each construct; settings: for cAMP response, source data of Fig. 5c: FPR1 R205A, single replicate readings
T1 construct: expressed in transfected cells; host or cells: HeLa cells, transient, pcDNA3.1(+)
T1 sequence (P21462 1-350 R205A): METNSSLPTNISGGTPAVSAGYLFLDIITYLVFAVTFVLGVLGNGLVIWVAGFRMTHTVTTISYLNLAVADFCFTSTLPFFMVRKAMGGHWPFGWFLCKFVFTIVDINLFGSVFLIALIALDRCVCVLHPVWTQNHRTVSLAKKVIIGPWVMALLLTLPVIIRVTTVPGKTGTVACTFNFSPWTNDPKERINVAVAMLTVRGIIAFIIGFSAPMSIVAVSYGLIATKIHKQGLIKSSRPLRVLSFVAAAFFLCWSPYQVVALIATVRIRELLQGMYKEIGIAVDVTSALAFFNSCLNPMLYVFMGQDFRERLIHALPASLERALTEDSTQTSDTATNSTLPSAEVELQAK
From the text: (§1) FPR1 cDNA in the pcDNA3.1(+) vector (Invitrogen) was used as a template for gene manipulation. The mutations of FPR1 were introduced in the receptor through overlap extension PCR with elaborately designed primers (GENEWIZ, Suzhou, China). The sequences of the primers were listed in Supplementary Table 2. Two fragments of FPR1 (separated at mutated positions) were assembled into pre-cut pcDNA3.1(+) vectors with the ClonExpress Ultra One Step Cloning Kit (Vazyme Biotech, C115). Plasmids with FPR1 mutations were confirmed by DNA sequencing (GENEWIZ).
(§2) For functional studies, FPR1 and its mutants were expressed in HeLa cells as above. The cells were resuspended in HBSS buffer plus 5 mM HEPES, 0.1% BSA (w/v) and 0.5 mM 3-isobutyl-1-methylxanthine and seeded into 384-well plates. […] AG-14 was synthesized by Sungening Biotechnology (Shenzhen, China). Different concentrations of the ligands were prepared plus a fixed dose of forskolin with the buffer above. […] Intracellular cAMP levels were measured with the LANCE Ultra cAMP kit (PerkinElmer, TRF0263) following the manufacturer’s instructions. […] Intracellular cAMP levels were calculated according to the TR-FRET signals of the samples and cAMP standards.
(§3) The data were analyzed with Prism 6.0 (GraphPad, San Diego, CA). For dose-response analysis, the curves were plotted with the log[agonist] vs. response equation (three parameters) in the software. Data points were presented as the percentages (mean ± SEM) of the maximal cAMP level for each construct, from at least three independent experiments, as indicated in figure legends. The pEC50 values were the negative logarithm of the EC50 values, which were obtained from the dose-response curves. For cell surface expression, data points were presented as the percentages (mean ± SEM) of the flow cytometry fluorescence signals of WT FPR1. For statistical comparison, a p-value of 0.05 or lower is considered statistically significant.

[2] = target: T2, FPR1 R84A (Homo sapiens, UniProt P21462, R84A); test: cAMP inhibition assay, FPR1 R84A; assay type: cell-based; design: key to cAMP response, source data of Fig. 5c: % of maximal cAMP level for each construct
T2 construct: expressed in transfected cells; host or cells: HeLa cells, transient, pcDNA3.1(+)
T2 sequence (P21462 1-350 R84A): T1 sequence (P21462 1-350 R205A) with R84A, A205R
From the text: as §1, §2, §3

[3] = target: T3, FPR1 F291A (Homo sapiens, UniProt P21462, F291A); test: cAMP inhibition assay, FPR1 F291A; assay type: cell-based; settings: FPR1 F291A, single replicate readings
T3 construct: expressed in transfected cells; host or cells: HeLa cells, transient, pcDNA3.1(+)
T3 sequence (P21462 1-350 F291A): T1 sequence (P21462 1-350 R205A) with A205R, F291A
From the text: as §1, §2, §3

[4] = target: T4, FPR1 WT (Homo sapiens, UniProt P21462); test: cAMP inhibition assay, WT FPR1; assay type: cell-based
T4 construct: expressed in transfected cells; host or cells: HeLa cells, transient, pcDNA3.1(+)
T4 sequence (P21462 1-350): T1 sequence (P21462 1-350 R205A) with A205R
From the text: as §1
as §2, with “China).” for “China). Different concentrations of the ligands were prepared plus a fixed dose of forskolin with the buffer above.”
(§4) The data were analyzed with Prism 6.0 (GraphPad, San Diego, CA). […] For cell surface expression, data points were presented as the percentages (mean ± SEM) of the flow cytometry fluorescence signals of WT FPR1. […]

[5] = target: T5, FPR1 R201A (Homo sapiens, UniProt P21462, R201A); test: cAMP inhibition assay, FPR1 R201A; assay type: cell-based
T5 construct: expressed in transfected cells; host or cells: HeLa cells, transient, pcDNA3.1(+)
T5 sequence (P21462 1-350 R201A): T1 sequence (P21462 1-350 R205A) with R201A, A205R
From the text: as §1
as §2, with “China).” for “China). Different concentrations of the ligands were prepared plus a fixed dose of forskolin with the buffer above.”
as §4

[6] = target: T6, WT FPR1 expressed in HeLa cells (human, UniProt P21462 1-350)
T6 sequence (looked up): T1 sequence (P21462 1-350 R205A) with A205R

[7] = target: T7, FPR1 R205A (human, UniProt P21462 1-350, R205A); test: cell-based or functional assay
T7 sequence (looked up): T1 sequence (P21462 1-350 R205A)

[8] = target: T6, WT FPR1 expressed in HeLa cells; test: cell-based or functional assay
[9] = target: T8, FPR1 R201A (human, UniProt P21462 1-350, R201A); test: cell-based or functional assay
T8 sequence (looked up): T1 sequence (P21462 1-350 R205A) with R201A, A205R

COc1cc(C=NNC(=O)c2ccc3c(c2)OCO3)ccc1OCc1ccccc1 [Fig. 5c]
cAMP response, source data of Fig. 5c ([1]; Log[M] -4.3): 31.8 and 48.0 and 38.0 and 26.4 and 16.2 and 78.8 | cAMP response, source data of Fig. 5c ([1]; Log[M] -5.0): 58.1 and 43.9 and 27.8 and 37.0 and 34.2 and 45.7 | cAMP response, source data of Fig. 5c ([1]; Log[M] -5.7): 35.5 and 68.3 and 63.8 and 45.2 and 48.0 and 85.4 | cAMP response, source data of Fig. 5c ([1]; Log[M] -6.4): 69.2 and 71.8 and 39.5 and 113.9 and 150.2 and 118.4 | cAMP response, source data of Fig. 5c ([1]; Log[M] -7.1): 78.9 and 109.8 and 60.3 and 84.0 and 71.2 and 109.6 | cAMP response, source data of Fig. 5c ([1]; Log[M] -7.8): 116.3 and 101.9 and 108.0 and 144.2 and 102.7 and 124.3 | cAMP response, source data of Fig. 5c ([1]; Log[M] -8.5): 91.9 and 89.9 and 58.5 and 89.3 and 105.1 and 67.8 | cAMP response, source data of Fig. 5c ([2]; Log[M] -4.3, single replicate readings): 37.2 and 21.4 and -4.8 and 34.9 and 32.8 and 41.9 | cAMP response, source data of Fig. 5c ([2]; Log[M] -5.0, single replicate readings): 14.6 and -24.6 and 16.2 and 33.5 and 20.2 and 31.4 | cAMP response, source data of Fig. 5c ([2]; Log[M] -5.7, single replicate readings): 49.5 and 79.5 and 66.2 and 55.1 and 52.2 and 52.7 | cAMP response, source data of Fig. 5c ([2]; Log[M] -6.4, single replicate readings): 79.9 and 58.8 and 61.6 and 91.8 and 112.7 and 81.8 | cAMP response, source data of Fig. 5c ([2]; Log[M] -7.1, single replicate readings): 135.9 and 91.7 and 83.9 and 115.6 and 133.7 and 94.7 | cAMP response, source data of Fig. 5c ([2]; Log[M] -7.8, single replicate readings): 106.7 and 82.2 and 108.6 and 111.9 and 96.0 and 84.6 | cAMP response, source data of Fig. 5c ([2]; Log[M] -8.5, single replicate readings): 91.1 and 94.4 and 114.8 and 80.2 and 111.9 and 117.6 | cAMP response, source data of Fig. 5c ([3]; Log[M] -4.3): 33.9 and 34.1 and 26.7 and 28.4 and 24.2 and 31.1 | cAMP response, source data of Fig. 5c ([3]; Log[M] -5.0): 45.9 and 38.0 and 28.1 and 39.1 and 42.3 and 29.9 | cAMP response, source data of Fig. 5c ([3]; Log[M] -5.7): 66.9 and 58.1 and 74.7 and 72.6

CC[C@H](C)[C@H](NC(=O)[C@H](CCSC)NC=O)C(=O)N[C@@H](Cc1ccccc1)C(=O)N[C@@H](CC(C)C)C(=O)O [fMIFL, fMet-Ile-Phe-Leu] (For-MIFL-OH)
EC50 [4]: 0.0631 nM | EC50 [1]: 2.51 nM | EC50 [5]: 6.31 nM

WKYMVm (peptide)
pEC50 of inhibition of forskolin-elevated cAMP, transfected HeLa cells [6]: 8.4

For-MIFL [fMet-Ile-Phe-Leu (fMIFL)]
pEC50 of inhibition of forskolin-elevated cAMP, transfected HeLa cells [7]: 8.6 | pEC50 of inhibition of forskolin-elevated cAMP, transfected HeLa cells [8]: 10.2 | pEC50 of inhibition of forskolin-elevated cAMP, transfected HeLa cells [9]: 8.2

From PMC9445081, “Structural basis for recognition of N-formyl peptides as pathogen-associated molecular patterns” (Nature Communications, 2022)
